Data published in patent US5525595A, “3- or 4-glycosyloxybenzopyran derivative and antiallergic agent containing the derivative as active ingredient” (priority 1993, dated 1996).

Legend:
[1] = system: homologous passive cutaneous anaphylaxis (PCA) reaction; assay: Effect on homologous passive cutaneous anaphylaxis (PCA) reaction in rats; type: in vivo, rats (Male wistar rats); conditions: for inhibition in vivo at 100 mg/kg: Rattus norvegicus, 0.5 h; for Inhibition (%) of PCA reaction, compared compounds: Comparative Test Example 1, Table 5, compared compounds of EP-A-0598117
Description: This experimental animal model is caused by immediate type allergic reaction, namely, antigen-antibody reaction. In the following, the method of this pharmacological test will be explained.
Method: Male wistar rats (9 weeks old) were intradermally administered 0.05 ml of anti-serum against trinitrophenylated ascaris (TNP-As) into two sites on the shaved dorsal skin. 48 hours later, 3-glycosyloxybenzopyran derivatives and 4-glycosyloxybenzopyran derivatives (test compounds) suspended in 0.5% sodium carboxymethylcellulose (CMCNa) were given orally at a dose of 100 mg/kg to the animals. 1 hour after administration of Test compounds, the animals were induced anaphylaxis by injection of saline (1 ml) dissolving 5 mg of Evans Blue and 1 mg of TNP-As into the tail vein of the animals. 30 minutes after induction of anaphylaxis, animals were anesthetized by ether and killed by bleeding, and were flayed dorsal skin. The leakage of dye was assessed by measuring the diameter (mean of shortest and longest diameter) of the blue spot on the inside surface of dorsal skin. As vehicle control group, only 0.5% CMCNa solution was administered orally, and as positive control group, Tranilast suspended in 0.5% CMCNa were administered orally at a dose of 100 mg/kg to the animals with the same method as the test compounds groups. Each experimental group consisted of 5 rats. [formula] In equation 1: A: leakage of dye in vehicle control group
B: leakage of dye in test compound group or in positive control group
The anti-allergic activity of the compounds of the present invention were compared with that of analogous compounds which were published in the Patent (EP-A-0598117) by PCA reaction. This pharmacological test was performed according to the method described in Test Example 1.

[2] = system: contact dermatitis induced by picryl chloride; assay: Effect on contact dermatitis induced by picryl chloride in mice (delayed type hypersensitization); type: in vivo
Description: The delayed type hypersensitization is inhibited by steroid, but can not be effected by known anti-allergic agents. In the following, the method of the pharmacological test will be explained.
Method: Mice, shaved their abdominal skin on previous day, were immunized by applying 0.1 ml of acetone containing 7 mg of picryl chloride to the skin of the abdomen. 7 days after immunization, the thickness of the ear was measured with a dial thickness gauge, then mice were challenged by painting 5 μl of 1% picryl chloride olive oil solution to each side skin of left ear. 24 hours after challenge, the thickness of the left ear was measured again and the increase (%) of thickness was calculated according to equation 2. The compounds of the present invention (test compounds) suspended in 0.5% CMCNa were forcibly administered orally at a dose of 100 mg/kg at 1 hour before and 16 hours after challenge. As vehicle control group, only 0.5% CMCNa solution were administered orally, and as positive control group, Prednisolone, steroid hormone, and Tranilast were administered orally at the doses of 10 mg/kg and 100 mg/kg, respectively.
Increase (%)=(A-B)/B×100 (Equation 2)
A: thickness of the ear at 24 hours after challenge
B: thickness of the ear before challenge
Inhibition(%)=(C-D)/C×100 (equation 3)
C: The increase (%) in vehicle control group
D: The increase (%) in test compounds group or positive control group

[3] = system: airway resistance in experimental asthma model; assay: Effect on experimental asthma model in guinea pigs; type: in vivo, guinea pigs (Male hadley); conditions: 100 mg/kg oral, OVA challenge, guinea pigs, Table 7; for inhibition in vivo at 100 mg/kg: Cavia porcellus
Description: The asthma is typical allergic disease and we carried out this pharmacological test by well known experimental asthma model in guinea pigs in order to confirm that the compounds of the present invention suppress the asthma. In the following, the method of the pharmacological test will be explained.
Method: Male hadley guinea pigs were immunized by intraperitoneal injection of saline (1 ml) containing 5 mg of ovalbumine (OVA) three times at interval of one week. 2 weeks after final immunization, the animals were challenged by inhalation of 1% OVA-saline solution for 1 minute and then the airway resistance of the animals were measured for 30 minutes with PULMOS-1 (Medical Interface Project Station Inc.) after the inhalation. The compounds of the present invention (test compounds) suspended in 0.5% CMCNa were given orally at a dose of 100 mg/kg. As positive control group, Disodium Cromoglicate (DSCG), well known anti-allergic agent, in saline were injected at a dose of 20 mg/kg into the vein of the animals. As vehicle control group, only 0.5% CMCNa solution were given orally. The inhibition (%) of the airway resistance in vehicle control group was calculated according to equation 5 and the result was shown in Table 7. Each experimental group consisted of 5 guinea pigs. [formula] In equation 5: A: Maximum airway resistance in vehicle control group
B: Maximum airway resistance in test compounds group or positive control group

[4] = 100 mg/kg oral, 1 hour before antigen, rats, Table 3
[5] = Mus musculus, 100 mg/kg oral, ear thickness 24 hours after challenge, Table 6, read-out: Inhibition (%) against the increase of ear thickness

| SMILES | inhibition in vivo at 100 mg/kg [1, 4] [%] | inhibition in vivo at 100 mg/kg [2, 5] [%] | inhibition in vivo at 100 mg/kg [3] [%] | further results |
| --- | --- | --- | --- | --- |
| CCCCCCCCCCOc1ccc2c(O[C@@H]3O[C@H](CO)[C@@H](O)[C@H](O)[C@H]3O)c(O)c(=O)oc2c1 [compound 67] | 60.4 | 63.8 | 70.6 | – |
| CCCCCCCCCCCCOc1ccc2c(O)c(O[C@H]3O[C@H](CO)[C@@H](O)[C@H](O)[C@@H]3O)c(=O)oc2c1 [compound 26] | 53.3 | 55.9 | 66.3 | – |
| COc1ccc2c(O[C@@H]3O[C@H](CO)[C@@H](O)[C@H](O)[C@H]3O)c(OC(C)=O)c(=O)oc2c1 [compound 65, 7-methoxy-3-acetoxy-4-(β-D-glucopyranosyloxy)-2H-1-benzopyran-2-one] | 45.6 | 46.3 | 46.9 | – |
| CC(=O)Oc1ccc2c(O[C@@H]3O[C@H](CO)[C@@H](O)[C@H](O)[C@H]3O)c(O)c(=O)oc2c1 [compound 116] | 48 | 45.1 | 55.3 | – |
| COc1ccc2c(OCc3ccccc3)c(O[C@@H]3O[C@H](COC(C)=O)[C@@H](OC(C)=O)[C@H](OC(C)=O)[C@@H]3OC(C)=O)c(=O)oc2c1 [compound 6, 7-methoxy-4-benzyloxy-3-(tetra-O-acetyl-β-D-mannopyranosyloxy)-2H-1-benzopyran-2-one] | – | – | – | Inhibition (%) of PCA reaction [1, 4]: 42.3%; Inhibition (%) against the increase of ear thickness ([2]; 100 mg/kg oral, ear thickness 24 hours after challenge, Table 6): 41.9%; Inhibition (%) of the airway resistance [3]: 38.5% |
| O=c1oc2cc(OCc3ccccc3)ccc2c(O[C@@H]2O[C@H](CO)[C@H](O)[C@H](O)[C@H]2O)c1O [compound 104] | 44.2 | 46.1 | 63.3 | – |
| CC(C)=CCC/C(C)=C/COc1ccc2c(O[C@@H]3O[C@H](CO)[C@@H](O)[C@H](O)[C@H]3O)c(O)c(=O)oc2c1 [compound 71] | 57.4 | 57.1 | 65.2 | – |
| O=c1oc2cc(O)ccc2c(O)c1O[C@@H]1O[C@H](CO)[C@@H](O)[C@H](O)[C@H]1O [compound 14] | 50.2 | 47.5 | 52.3 | – |
| CC(C)Oc1ccc2c(O[C@H]3O[C@H](CO)[C@@H](O)[C@H](O)[C@@H]3O)c(O)c(=O)oc2c1 [compound 83] | 49.3 | 49.1 | 46.9 | – |
| CCC=CCCOc1ccc2c(O)c(O[C@@H]3O[C@H](CO)[C@@H](O)[C@H](O)[C@H]3O)c(=O)oc2c1 [compound 19] | 56.8 | 57.4 | 73.1 | – |
| CCCCCCCCOc1ccc2c(O)c(OC)c(=O)oc2c1 [Compared compound 2, 3-methoxy-4-hydroxy-7-octyloxy-2H-1-benzopyran-2-one, reference compound] | – | – | – | Inhibition (%) of PCA reaction, compared compounds [1]: 32.8% |
| COc1ccc2c(OC)c(O)c(=O)oc2c1 [Compared compound 3, 3-hydroxy-4,7-dimethoxy-2H-1-benzopyran-2-one, reference compound] | – | – | – | Inhibition (%) of PCA reaction, compared compounds [1]: 30.6% |
| C[C@]12C=CC(=O)C=C1CC[C@@H]1[C@@H]2[C@@H](O)C[C@@]2(C)[C@H]1CC[C@]2(O)C(=O)CO [Prednisolone, reference compound] | – | – | – | inhibition in vivo at 10 mg/kg ([2]; Mus musculus, po, 24 h, read-out: Inhibition (%) against the increase of ear thickness): 63.5% |
| CCCCCCCCCCOc1ccc2c(OC)c(O)c(=O)oc2c1 [Compared compound 4, 3-hydroxy-4-methoxy-7-decyloxy-2H-1-benzopyran-2-one, reference compound] | – | – | – | Inhibition (%) of PCA reaction, compared compounds [1]: 26.4% |
